Blank lines part the entries; values can stand above or below the molecule they belong to.
What was measured:
HCT-116 [1] = assay: Antiproliferative activity against MTAP-deleted human HCT-116 cells assessed as effect on cell viability incubated for 6 days by Celltiter-Glo luminescent cell viability assay; assay type: functional, cell-based; settings: HCT-116, 144 h
[2] = Drug metabolism in human hepatocytes assessed as 3-methylquinoline ring system oxidation mediated metabolite formation; assay type: ADME, cell-based, Hepatocyte
[3] = Metabolic stability in dog hepatocytes assessed as intrinsic clearance measured per 10^6 cells; assay type: ADME, cell-based, Canis lupus familiaris, Hepatocyte; settings: read-out: CLH
[4] = Metabolic stability in rat liver microsomes assessed as intrinsic clearance; assay type: ADME, Microsome; settings: time 40 min, read-out: CLH
[5] = Oral bioavailability in Beagle dog at 2 mg/kg administered as 1% Tween 80, 2% HPMC, 97% water/methanesulfonic acid, pH 2.0 formulation; assay type: ADME, organism-based, Canis lupus familiaris; settings: in vivo
[6] = Clearance in Sprague-Dawley rat at 0.5 mg/kg, iv; settings: in vivo
[7] = Protein binding in human plasma assessed as unbound fraction by ultracentrifugation
[8] = Unbound clearance in CD-1 mouse at 1 mg/kg, iv; assay type: ADME, organism-based; settings: in vivo
[9] = Volume of distribution at steady state in Sprague-Dawley rat at 0.5 mg/kg, iv; settings: in vivo
[10] = Unbound clearance in Sprague-Dawley rat at 0.5 mg/kg, iv; assay type: ADME, organism-based; settings: in vivo
DOHH-2 = assay: Antiproliferative activity against human DOHH-2 cells assessed as effect on cell viability; assay type: functional, cell-based
[11] = Unbound clearance in Beagle dog at 0.5 mg/kg, iv; assay type: ADME, organism-based, Canis lupus familiaris; settings: in vivo
[12] = Metabolic stability in human hepatocytes assessed as intrinsic clearance measured per 10^6 cells; assay type: ADME, cell-based, Hepatocyte; settings: read-out: CLH
U-87 MG = assay: Antiproliferative activity against human U-87 MG cells assessed as effect on cell viability; assay type: functional, cell-based, U-87MG ATCC
[13] = Protein binding in mouse plasma assessed as unbound fraction by ultracentrifugation
[14] = Metabolic stability in mouse hepatocytes assessed as intrinsic clearance measured per 10^6 cells; assay type: ADME, cell-based, Hepatocyte; settings: read-out: CLH
[15] = Drug metabolism in mouse hepatocytes assessed as 3-methylquinoline ring system oxidation mediated metabolite formation; assay type: ADME, cell-based, Hepatocyte
[16] = Metabolic stability in mouse liver microsomes assessed as intrinsic clearance at 0.5 uM incubated for 40 mins in presence of NADPH; assay type: ADME, Microsome; settings: read-out: CLH
HCT-116 [17] = assay: Antiproliferative activity against human HCT-116 cells harboring wildtype MTAP assessed as effect on cell viability incubated for 6 days by Celltiter-Glo luminescent cell viability assay; assay type: functional, cell-based; settings: HCT-116, 144 h
[18] = Half-life in Beagle dog at 0.5 mg/kg, iv; assay type: ADME, organism-based, Canis lupus familiaris; settings: in vivo
[19] = AUC (0 to t) in CD-1 mouse at 5 mg/kg, po administered as 1% Tween 80, 2% HPMC, 97% water/methane sulfonic acid, pH 2.0 formulation; assay type: ADME, organism-based; settings: in vivo
[20] = Metabolic stability in dog liver microsomes assessed as intrinsic clearance; assay type: ADME, Canis lupus familiaris, Microsome; settings: read-out: CLH
[21] = Clearance in Beagle dog at 0.5 mg/kg, iv; settings: in vivo
BXPC-3 = assay: Antiproliferative activity against human BXPC-3 cells assessed as effect on cell viability; assay type: functional, cell-based
[22] = Metabolic stability in rat hepatocytes assessed as intrinsic clearance measured per 10^6 cells; assay type: ADME, cell-based, Hepatocyte; settings: read-out: CLH
[23] = Metabolic stability in human liver microsomes assessed as intrinsic clearance at 0.5 uM incubated for 40 mins in presence of NADPH; assay type: ADME, Microsome; settings: read-out: CLH
in vivo [24] = settings: beagle, dog, iv, 0.5 mg/kg
[25] = Half-life in Sprague-Dawley rat at 0.5 mg/kg, iv; assay type: ADME, organism-based; settings: in vivo
[26] = Protein binding in dog plasma assessed as unbound fraction by ultracentrifugation
in vivo [27] = settings: CD-1, mouse, iv, 1 mg/kg
[28] = Half-life in CD-1 mouse at 1 mg/kg, iv; assay type: ADME, organism-based; settings: in vivo
[29] = Oral bioavailability in CD-1 mouse at 5 mg/kg administered as 1% Tween 80, 2% HPMC, 97% water/methane sulfonic acid, pH 2.0 formulation; assay type: ADME, organism-based; settings: in vivo
human MDR1 (P-gp) = assay: Efflux ratio of permeability across basolateral to apical side over apical to basolateral side in MDCK cells transfected with human MDR1 in absence of elacridar; settings: dog
PRMT5/MEP50 complex = PRMT5/MEP50 complex (Homo sapiens, UniProt O14744)
Description: Inhibition of PRMT5/MEP50 (unknown origin) preincubated with compound for 24 hrs in presence of SAM and MTA followed by Histone H4 (1-21)-Lys(Biotin) peptide addition and measured after 2 hrs by MTase-Glo reagent based assay

CYP3A4 = CYP3A4 (Homo sapiens, UniProt P08684); assay: in vitro; settings: human liver microsomes, probe midazolam
[30] = target: T1, Nuclear receptor subfamily 1 group I member 2 (Homo sapiens, UniProt O75469); assay: Activation of human PXR in human HepG2 cells co-transfected with CYP3A4-luciferase at 10 uM incubated for 1 day relative to control; settings: hepg2, 24 h
T1 sequence (O75469 whole entry): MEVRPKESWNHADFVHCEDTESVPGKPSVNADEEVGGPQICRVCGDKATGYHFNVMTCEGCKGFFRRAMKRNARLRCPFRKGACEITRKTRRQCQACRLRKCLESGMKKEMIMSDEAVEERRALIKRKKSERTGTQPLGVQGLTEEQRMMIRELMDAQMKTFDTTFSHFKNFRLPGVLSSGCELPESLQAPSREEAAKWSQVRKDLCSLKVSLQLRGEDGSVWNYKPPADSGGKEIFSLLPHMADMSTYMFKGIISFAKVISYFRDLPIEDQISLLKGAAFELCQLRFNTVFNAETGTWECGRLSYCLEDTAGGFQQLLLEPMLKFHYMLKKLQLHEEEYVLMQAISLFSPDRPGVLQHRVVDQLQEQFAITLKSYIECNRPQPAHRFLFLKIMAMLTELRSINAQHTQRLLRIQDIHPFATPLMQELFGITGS

[31] = Clearance in CD-1 mouse at 1 mg/kg, iv; settings: in vivo

Chain of CYP3A4 (P08684 whole entry): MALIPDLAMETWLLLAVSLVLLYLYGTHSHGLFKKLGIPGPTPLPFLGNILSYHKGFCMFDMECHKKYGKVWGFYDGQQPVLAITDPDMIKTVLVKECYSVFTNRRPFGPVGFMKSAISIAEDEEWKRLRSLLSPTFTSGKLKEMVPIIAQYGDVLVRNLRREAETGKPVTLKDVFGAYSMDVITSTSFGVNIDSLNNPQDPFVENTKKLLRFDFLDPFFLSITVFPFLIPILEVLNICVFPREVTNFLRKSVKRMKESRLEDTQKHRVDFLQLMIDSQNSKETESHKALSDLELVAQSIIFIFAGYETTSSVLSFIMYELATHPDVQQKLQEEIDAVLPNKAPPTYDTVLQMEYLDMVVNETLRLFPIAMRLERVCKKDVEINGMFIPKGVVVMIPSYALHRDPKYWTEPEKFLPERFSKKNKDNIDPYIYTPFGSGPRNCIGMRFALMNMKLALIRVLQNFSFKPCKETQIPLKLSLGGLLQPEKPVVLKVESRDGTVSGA
Chain of PRMT5/MEP50 complex (O14744 whole entry): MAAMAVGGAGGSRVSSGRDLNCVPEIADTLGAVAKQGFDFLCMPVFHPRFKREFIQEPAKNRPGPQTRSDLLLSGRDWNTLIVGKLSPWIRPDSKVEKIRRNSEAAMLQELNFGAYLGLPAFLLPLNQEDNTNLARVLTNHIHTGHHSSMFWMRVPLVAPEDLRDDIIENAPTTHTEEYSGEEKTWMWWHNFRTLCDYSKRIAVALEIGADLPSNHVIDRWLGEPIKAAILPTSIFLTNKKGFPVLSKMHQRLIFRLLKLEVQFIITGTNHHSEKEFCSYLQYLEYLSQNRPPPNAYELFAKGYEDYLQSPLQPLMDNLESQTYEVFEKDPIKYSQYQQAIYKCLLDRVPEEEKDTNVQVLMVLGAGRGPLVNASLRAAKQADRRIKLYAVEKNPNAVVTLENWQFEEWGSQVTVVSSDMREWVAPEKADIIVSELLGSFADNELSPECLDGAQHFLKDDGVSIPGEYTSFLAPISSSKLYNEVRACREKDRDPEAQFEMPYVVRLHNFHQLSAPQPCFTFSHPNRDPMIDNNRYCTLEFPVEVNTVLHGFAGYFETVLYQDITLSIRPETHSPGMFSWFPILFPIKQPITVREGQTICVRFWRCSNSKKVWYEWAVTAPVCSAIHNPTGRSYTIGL
Chain of PRMT5/MEP50 complex (Q9BQA1 whole entry, further chain): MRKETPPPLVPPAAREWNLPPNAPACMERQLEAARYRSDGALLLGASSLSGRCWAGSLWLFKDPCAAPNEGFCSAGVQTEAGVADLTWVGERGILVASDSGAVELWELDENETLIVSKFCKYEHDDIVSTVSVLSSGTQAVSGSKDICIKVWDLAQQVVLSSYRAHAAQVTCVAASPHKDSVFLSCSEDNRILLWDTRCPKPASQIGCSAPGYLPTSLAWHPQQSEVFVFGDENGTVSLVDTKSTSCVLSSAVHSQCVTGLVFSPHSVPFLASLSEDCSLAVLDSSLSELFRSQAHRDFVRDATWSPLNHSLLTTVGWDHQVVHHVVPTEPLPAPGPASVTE

SMILES: Cc1cc2cc(C(=O)N(Cc3ccc(C(F)(F)F)cn3)[C@H](C)c3ncccn3)ccc2nc1N
IC50 (HCT-116 [1]): 40 nM
Drug metabolism [2]: metabolite_detected
hepatocyte CLint [3]: 12 µL/min/1e6 cells
microsomal CLint at 0.5 µM [4]: 25 µL/min/mg
bioavailability [5]: 45%
clearance [6]: 26.7 mL/min/kg
fraction unbound [7]: 0.1
CL free [8]: 317 mL/min/kg
Vd [9]: 1.3 L/kg
CL free [10]: 167 mL/min/kg
IC50 (DOHH-2): 17 nM
CL free [11]: 123 mL/min/kg
hepatocyte CLint [12]: 9 µL/min/1e6 cells
IC50 (U-87 MG): 65 nM
fraction unbound ([13]; plasma): 0.12
hepatocyte CLint [14]: 18 µL/min/1e6 cells
Drug metabolism [15]: metabolite_detected
microsomal CLint at 0.5 µM [16]: 90 µL/min/mg
IC50 (HCT-116 [17]): 854 nM
half-life [18]: 1.2 h
AUC(0-t) [19]: 1.01 µM·h
microsomal CLint [20]: 25 µL/min/mg
clearance [21]: 25 mL/min/kg
IC50 (BXPC-3): 73 nM
hepatocyte CLint [22]: 11 µL/min/1e6 cells
microsomal CLint at 0.5 µM [23]: 19 µL/min/mg
Vd (in vivo [24]): 1.9 L/kg
half-life [25]: 2.1 h
fraction unbound [26]: 0.2

IC50 (HCT-116 [1]): 64 nM
CL free [8]: 147 mL/min/kg
Vd (in vivo [27]): 1.8 L/kg
half-life [28]: 1.6 h
bioavailability [29]: 82%
fraction unbound ([13]; mouse plasma): 0.09
microsomal CLint at 0.5 µM [16]: 51 µL/min/mg
IC50 (HCT-116 [17]): 2460 nM
efflux ratio (human MDR1 (P-gp)): 7
Ki (PRMT5/MEP50 complex): < 0.1 nM
microsomal CLint at 0.5 µM [23]: 26 µL/min/mg
inhibition at 30 min, 10 µM (CYP3A4): < 20%
Activity [30]: 80%
clearance [31]: 13.3 mL/min/kg
SMILES: C[C@H]1OCc2c1c(N)nc1cnc(C(=O)N3CCOC[C@@H]3c3ccc(C(F)(F)F)cc3)cc21

IC50 (HCT-116 [1]): 14 nM
CL free [8]: 167 mL/min/kg
Vd (in vivo [27]): 1.4 L/kg
half-life [28]: 0.9 h
bioavailability [29]: 8%
fraction unbound ([13]; mouse plasma): 0.23
microsomal CLint at 0.5 µM [16]: 278 µL/min/mg
IC50 (HCT-116 [17]): 78 nM
efflux ratio (human MDR1 (P-gp)): 63
Ki (PRMT5/MEP50 complex): < 0.1 nM
microsomal CLint at 0.5 µM [23]: 129 µL/min/mg
inhibition at 30 min, 10 µM (CYP3A4): 4%
Activity [30]: 13%
clearance [31]: 38.3 mL/min/kg
SMILES: C[C@H](c1ncccn1)N(Cc1ccc(C(F)(F)F)cn1)C(=O)c1ccc2nc(N)c3c(c2c1)COC3

From ChEMBL document CHEMBL6109134, “Discovery of AMG 193, an MTA-Cooperative PRMT5 Inhibitor for the Treatment of MTAP-Deleted Cancers” (J Med Chem, 2025)
